Common to all, as to assay type: cell-based
The test system of one assay is Mycobacterium bovis BCG. The assay can be described thus: microbe, parasite or virus in culture.
Assay [1] has as its system M. smegmatis. The assay can be described thus: microbe, parasite or virus in culture.
For another assay, the system named is WT M. smegmatis. The following applies: subinhibitory, 24 h, OD600.
The test system of assay [2] is M. smegmatis.
In another assay the test system is M. tuberculosis H37Rv. The assay can be described thus: microbe, parasite or virus in culture. The following applies: Mycobacterium tuberculosis, 120 h.
Assay [3] relates to caseinolytic protease substrate WhiB1 (M. smegmatis pTet-GFP-WhiB1).

Molecules are shown by their SMILES. ≈ marks a conversion by molar mass, not a printed value. Peptide text beside a SMILES is read from it. * marks the point of attachment. Cbz = O=C(OCc1ccccc1)*

For `CC(C)C[C@H](NC(=O)[C@@H](NC(=O)c1cccc(-c2ccccc2)n1)[C@@H](C)O)B(O)O` [CEP-18770], the “Growth inhibition of WT M. bovis, in words” value in the assay with Mycobacterium bovis BCG is on record as “strongest growth inhibition”. The “Growth inhibition of WT M. smegmatis, in words” value in the assay with M. smegmatis [1] is recorded as “same potent growth inhibition as BZ”.

Consider `CC(C)C[C@@H](C=O)NC(=O)[C@H](CC(C)C)NC(=O)[C@H](CC(C)C)NC(=O)OCc1ccccc1` [MG-132] (Cbz-Leu-Leu-Leu-aldehyde), for which the “Growth inhibition of WT M. bovis, in words” value in the assay on Mycobacterium bovis BCG is on record as “no response”. In the assay on M. smegmatis [1], the “Growth inhibition of WT M. smegmatis, in words” value is given as “completely abrogated”.

As for `CC(C)C[C@H](NC(=O)CNC(=O)c1cc(Cl)ccc1Cl)B(O)O` [MNL-2238], the “Growth inhibition of WT M. smegmatis, in words” value with M. smegmatis [1] is reported as “weaker growth inhibition”.

Consider `CC(C)C[C@H](NC(=O)CNC(=O)c1cc(Cl)ccc1Cl)B1OC(=O)C(CC(=O)O)(CC(=O)O)O1` [MNL-9708], for which the “Growth inhibition of WT M. smegmatis, in words” value in the assay on M. smegmatis [1] is “active”.

With `CC(C)C[C@H](NC(=O)[C@H](Cc1ccccc1)NC(=O)c1cnccn1)B(O)O` [compound 100, bortezomib], the “Growth inhibition of WT M. bovis, in words” value in the assay with Mycobacterium bovis BCG is on record as “strongest growth inhibition”. Besides, the MIC50 against Mycobacterium bovis BCG (Mycobacterium tuberculosis variant bovis BCG, BCG, 120 h) stood at 0.3 µM (≈ 0.115 µg/mL); against M. smegmatis [1] (Mycolicibacterium smegmatis, 24 h) it was 4 µM (≈ 1.54 µg/mL); in the assay with M. tuberculosis H37Rv, 0.8 µM (≈ 0.307 µg/mL). Besides, in the assay with WT M. smegmatis (BZ 1.5 µM + amikacin 0.4 µM), the “Growth inhibition in combination with amikacin” value is on record as “complete growth inhibition”. In addition, the Potentiation of chloramphenicol entry in the assay on WT M. smegmatis (BZ 1.5 µM + chloramphenicol 4.5 µM) is given as “no potentiation effect”. Besides, in the assay with WT M. smegmatis (BZ 1.5 µM + streptomycin 0.05 µM), the “Growth inhibition in combination with streptomycin” value is on record as “complete growth inhibition”. For the same compound, the “Growth inhibition of WT M. smegmatis, in words” value with M. smegmatis [1] is “showed an effect”. For the same compound, the “MBC90 (minimum bactericidal concentration that kills 90% of an initial inoculum)” value in the assay on M. smegmatis [2] is recorded as 30 µM. Also, the GFP-WhiB1 fluorescence result in assay [3] is listed as “increased fluorescence in a dose-dependent manner”.
